Laboratory results published in patent publication US20240384268A1, “Oligonucleotides” (Hudson Institute of Medical Research, priority 2021, published 2024).
In the oligonucleotide strings, read from the 5' end, every base follows the letter of its sugar. An asterisk marks phosphorothioate; unmarked linkages are phosphodiester. Other units and linkages are bracketed, terminal groups are in braces. A string of capitals states the bases alone. d = 2'-deoxy (DNA); m = 2'-O-methyl

Experiments:
Assay type in all cases: cell-based
[1] = molecular target: T1, TLR8 (Homo sapiens, UniProt Q9NR97); test: HEK-TLR8 NF-κB-luciferase reporter, R848 or Motolimod stimulation (potentiation or inhibition); parameters: expressed in transfected cells; host or cells: 293XLhTLR8 (HEK293); details: HEK-TLR8; 500 nM ASO ~30 min; R848 overnight
T1 sequence (Q9NR97 27-1041): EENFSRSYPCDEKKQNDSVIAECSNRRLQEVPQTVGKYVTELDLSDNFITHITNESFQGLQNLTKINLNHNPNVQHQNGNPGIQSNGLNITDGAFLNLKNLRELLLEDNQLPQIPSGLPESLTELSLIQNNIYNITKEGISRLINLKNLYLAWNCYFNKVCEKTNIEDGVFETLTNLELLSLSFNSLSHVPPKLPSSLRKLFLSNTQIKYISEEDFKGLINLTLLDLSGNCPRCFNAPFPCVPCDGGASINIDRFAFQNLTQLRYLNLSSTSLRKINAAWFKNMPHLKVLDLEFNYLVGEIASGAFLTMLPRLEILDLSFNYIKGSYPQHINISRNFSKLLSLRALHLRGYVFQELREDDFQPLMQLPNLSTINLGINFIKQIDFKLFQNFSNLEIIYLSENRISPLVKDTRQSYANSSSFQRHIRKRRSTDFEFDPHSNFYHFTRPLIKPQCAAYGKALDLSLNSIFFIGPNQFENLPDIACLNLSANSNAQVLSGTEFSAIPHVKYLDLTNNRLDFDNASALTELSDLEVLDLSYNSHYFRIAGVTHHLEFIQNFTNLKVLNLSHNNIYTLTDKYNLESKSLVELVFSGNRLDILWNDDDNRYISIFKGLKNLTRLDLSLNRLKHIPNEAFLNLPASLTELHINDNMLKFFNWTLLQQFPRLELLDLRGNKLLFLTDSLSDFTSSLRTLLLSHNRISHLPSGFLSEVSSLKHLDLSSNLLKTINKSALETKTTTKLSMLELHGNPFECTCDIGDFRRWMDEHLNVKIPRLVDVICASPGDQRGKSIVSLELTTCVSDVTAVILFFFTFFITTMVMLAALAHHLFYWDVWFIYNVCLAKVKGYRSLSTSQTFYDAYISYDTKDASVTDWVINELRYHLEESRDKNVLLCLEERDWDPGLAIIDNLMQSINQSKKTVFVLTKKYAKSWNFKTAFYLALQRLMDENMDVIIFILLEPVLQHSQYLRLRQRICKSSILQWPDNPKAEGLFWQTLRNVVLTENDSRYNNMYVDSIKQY
Experimental: (§1) In such examples, potentiation of TLR8 activity can be identified by observation of an overall increased TLR8 response of the cell population, or a higher proportion of cells having TLR8-positive activity as compared to a negative control condition in which cells are treated with TLR8 agonist in the absence of the oligonucleotide (or in the presence of an appropriate control non-potentiating agent). In one example, 293XLhTLR8 (referred to as HEK-TLR8) cells are transfected with pNF-κB-Luc4 reporter, incubated with an oligonucleotide, and then stimulated with R848. TLR8 activity can be determined by a luciferase assay, which measures activated NF-κB by luminescence. TLR8 activity can also be analysed by measuring cytokine levels, for example by ELISA.
as §1, with “inhibition” for “potentiation”, “decreased” for “increased”, “lower” for “higher”, “positive” for “negative”, “inhibitory” for “non-potentiating”
(§2) For cGAS stimulations, cells were treated for indicated duration with ASOs, prior to transfection with ISD70 (human cells) or ISD45 (mouse cells) (the ASOs were not washed off prior to ISD transfection unless otherwise indicated). The cGAS ligands ISD45 (Stetson and Medzhitov, 2006) and ISD70 (also known as VACV-70 (Unterholzner et al., 2010)) (Table 1) were resuspended as follows: 5 1d of sense and 5 μl of antisense strands at 10 μg/μl were added to 90 μl PBS under sterile conditions, heated at 75° C. for 30 min, prior to letting cool down at room temperature and aliquoting (stock at 1 μg/1 l). The ISDs were transfected at a concentration of […] at a ratio of 1 μg:1 μl with Lipofectamine 2000 in Opti-MEM (Thermo Fisher Scientific). HEK-TLR3, HEK-TLR7 and […] were treated with indicated concentration of ASOs for 20-50 min, prior to stimulation with poly(I:C) (Invivogen), R848 (Invivogen), Motolimod (MedChemExpress) and the Class B CpG oligonucleotides ODN 2006 (synthesised by IDT and resuspended in RNase-free TE buffer [Table 1]), respectively. The TLR2/1 agonist PAM3CSK4 (Invivogen), the TLR4 agonist lipopolysaccharide (Invivogen), the Class B CpG oligonucleotides ODN 1826 (synthesised by IDT and resuspended in RNase-free TE buffer), the mouse Sting agonist DMXAA (Cayman) and the human STING agonist (compound #3 from (Raanjulu et al., 2018), referred to as GSK herein—kind gift from Cancer Therapeutics CRC, Australia) were used at indicated concentrations. Aspirin (Sigma—A2093) was resuspended in pure medium to 10 mM, filter sterilised and added to the cells at 2 mM final. All ASOs were synthesised by Integrated DNA Technologies (IDT), and resuspended in RNase-free TE buffer, pH 8.0 (Thermo Fisher Scientific). Cell viability was assessed by adding 1× fresh resazurin solution to the wells (10λ solution made up with 7 mg resazurin [Sigma—R7017] dissolved in 3.5 ml PBS, sterile filtered at […]) for 4 h, prior to reading at with a Fluostar OPTIMA (BMG LABTECH) plate-reader (fluorescence: Excitation 535 nm, Emission 590); wells with medium only and 1× resazurin were used as blanks.

[2] = molecular target: cGAS (Homo sapiens, UniProt Q8N884); test: ISD70-driven IP-10 (and IFN-β) production in THP-1 cells, ELISA; parameters: endogenous in cells; host or cells: THP-1 (undifferentiated); details: THP-1; 2′OMe or PS oligos, 100-250 nM, pre-treatment as in figure legends; ISD70 2.5 μg/ml
Experimental: The ability of an oligonucleotide to inhibit cGAS activity can, for example, be analysed by incubating cells which express cGAS with an oligonucleotide, then stimulating said cells with a cGAS agonist (e.g., 70-bp interferon stimulating DNA or ISD70; 45-bp interferon stimulating DNA or ISD45), and analysing the overall cGAS response in the cell population, or analysing the proportion of cells having cGAS-positive activity after a defined period of time.
In such examples, inhibition of cGAS activity can be identified by observation of an overall decreased cGAS response of the cell population, or a lower proportion of cells having cGAS-positive activity as compared to positive control condition in which cells are treated with cGAS agonist in the absence of the oligonucleotide (or in the presence of an appropriate control inhibitory agent). In one example, THP-1 or HT-29 cells are transfected with ISD70 and incubated with an oligonucleotide. cGAS activity can then be determined by cytokine (e.g., IP-10 and/or IFNβ) expression (e.g., gene and/or protein expression) and/or secretion levels, such as by ELISA. A similar assay can be performed with LL171 cells transfected with ISD45. […] By way of example, cGAS enzymatic activity may be assessed in vitro using recombinant cGAS and then measuring activity thereof by way of a cGAMP ELISA.
as §2

[3] = molecular target: T2, human TLR9 (Homo sapiens, UniProt Q9NR96); test: HEK-TLR9 NF-κB-luciferase reporter, ODN2006 stimulation; details: HEK-TLR9; 500 nM 2′OMe or PS oligos; 200 nM ODN2006
T2 construct: HA; host or cells: 293XL-hTLR9-HA (HEK293)
T2 sequence (Q9NR96 26-1032): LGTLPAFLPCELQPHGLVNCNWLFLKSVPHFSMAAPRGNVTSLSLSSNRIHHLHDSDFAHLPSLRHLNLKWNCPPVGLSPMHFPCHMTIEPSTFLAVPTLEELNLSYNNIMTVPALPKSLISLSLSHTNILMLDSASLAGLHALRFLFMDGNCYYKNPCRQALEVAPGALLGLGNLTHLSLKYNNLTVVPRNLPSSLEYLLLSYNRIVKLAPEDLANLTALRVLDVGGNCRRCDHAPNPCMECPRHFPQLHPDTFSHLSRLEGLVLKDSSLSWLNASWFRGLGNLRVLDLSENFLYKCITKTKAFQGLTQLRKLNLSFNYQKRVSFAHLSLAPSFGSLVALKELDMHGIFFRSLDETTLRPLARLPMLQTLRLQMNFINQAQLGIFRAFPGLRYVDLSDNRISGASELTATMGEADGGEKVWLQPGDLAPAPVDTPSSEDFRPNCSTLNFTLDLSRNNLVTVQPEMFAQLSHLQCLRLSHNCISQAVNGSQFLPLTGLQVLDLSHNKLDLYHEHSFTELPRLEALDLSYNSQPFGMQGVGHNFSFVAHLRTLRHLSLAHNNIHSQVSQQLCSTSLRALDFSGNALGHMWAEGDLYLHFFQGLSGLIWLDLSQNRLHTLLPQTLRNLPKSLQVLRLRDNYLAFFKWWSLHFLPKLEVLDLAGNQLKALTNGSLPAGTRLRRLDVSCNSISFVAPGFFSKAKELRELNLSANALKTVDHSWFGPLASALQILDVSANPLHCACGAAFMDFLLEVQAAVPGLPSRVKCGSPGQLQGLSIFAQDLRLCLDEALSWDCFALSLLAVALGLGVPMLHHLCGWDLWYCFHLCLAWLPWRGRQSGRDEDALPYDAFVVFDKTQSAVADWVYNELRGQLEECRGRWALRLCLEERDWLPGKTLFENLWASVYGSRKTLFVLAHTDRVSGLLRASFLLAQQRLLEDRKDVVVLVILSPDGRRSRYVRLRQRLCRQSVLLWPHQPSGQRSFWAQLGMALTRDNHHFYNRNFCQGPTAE
Experimental: In such examples, inhibition of TLR9 activity can be identified by observation of an overall decreased TLR9 response of the cell population, or a lower proportion of cells having TLR9-positive activity as compared to positive control condition in which cells are treated with TLR9 agonist in the absence of the oligonucleotide (or in the presence of an appropriate control inhibitory agent). In one example, HEK cells are transfected with TLR9 and a NF-κB reporter and incubated with an oligonucleotide and then stimulated with a TLR9 agonist. TLR9 activity can then be determined by a luciferase assay. TLR9 activity can also be analysed by measuring cytokine levels (e.g., IFN, IL-6, TNF and IL-12), for example by ELISA.
as §2
Following transfection, the cells were collected from the 6-wells and aliquoted into 96-wells, just before ASO and overnight TLR stimulation (as above described). Similarly, the LL171 cells expressing and ISRE-Luc reporter were treated overnight. The next day, the cells were lysed in 40 μl (for a 96-well plate) of 1× Glo Lysis buffer (Promega) for 10 min at room temperature. […] was then subjected to firefly luciferase assay using 40 μl of Luciferase Assay Reagent (Promega). Luminescence was quantified with a Fluostar OPTIMA (BMG LABTECH) luminometer.

Chain of cGAS (Q8N884 whole entry): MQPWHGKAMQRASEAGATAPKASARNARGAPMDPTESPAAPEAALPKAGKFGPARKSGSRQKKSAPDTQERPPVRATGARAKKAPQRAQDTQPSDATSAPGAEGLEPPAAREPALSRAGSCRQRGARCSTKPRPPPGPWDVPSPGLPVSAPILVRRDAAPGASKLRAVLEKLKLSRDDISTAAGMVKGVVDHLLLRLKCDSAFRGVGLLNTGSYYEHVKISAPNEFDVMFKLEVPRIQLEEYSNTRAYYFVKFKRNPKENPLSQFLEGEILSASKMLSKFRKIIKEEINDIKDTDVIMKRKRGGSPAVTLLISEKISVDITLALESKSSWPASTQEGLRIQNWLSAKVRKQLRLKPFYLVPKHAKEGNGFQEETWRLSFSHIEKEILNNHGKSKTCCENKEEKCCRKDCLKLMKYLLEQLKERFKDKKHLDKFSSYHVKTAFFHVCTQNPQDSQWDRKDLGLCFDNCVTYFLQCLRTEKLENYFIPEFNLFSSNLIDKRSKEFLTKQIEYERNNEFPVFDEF

Substance	inhibition of ISD70-driven IP-10 production (in words) [2]	further results
mC*mU*mU*mC*mG*T*G*G*G*G*T*C*C*T*T*mU*mU*mC*mA*mC (CUUCGTGGGGTCCTTUUCAC; antisense; sugars from the 5' end m5 d10 m5, all phosphorothioate, methylation of C not given here) [[HPRT]660]		TLR8 potentiation of R848 sensing, 20-mer ASOs (in words) [1]: strong potentiator of TLR8 sensing
mG*mC*mG*mG*mU*A*T*C*C*A*T*C*A*G*A*mU*mA*mU*mC*mG (mG*mC*mG*mG*mU*dA*dT*dC*dC*dA*dT*dC*dA*dG*dA*mU*mA*mU*mC*mG; antisense) [C2-ASO2-B]	significantly less inhibitory than C2-ASO2-A	
mGmCmGmGmUmAmUmCmCmAmUmGmUmCmCmCmAmGmGmC (GCGGUAUCCAUGUCCCAGGC; all 2'-O-methyl, backbone not given here) [fully 2′Ome modified version of C2Mut1]	strongly blunting of cGAS activation	
mU*mU*mC*mU*mG*G*G*G*A*C*T*T*C*C*A*mG*mU*mU*mU*mA (mU*mU*mC*mU*mG*dG*dG*dG*dA*dC*dT*dT*dC*dC*dA*mG*mU*mU*mU*mA; antisense) [ASO9]		inhibition of TLR9 sensing of ODN2006 (in words) [3]: significantly inhibited TLR9 sensing of ODN2006
